# Experimental data as given in patent US20220185818A1, “PYRROLOHETEROCYCLIC DERIVATIVE, PREPARATION METHOD THEREFOR, AND APPLICATION THEREOF IN MEDICINE” (Jiangsu Hengrui Medicine Co., Ltd., priority 2019, published 2022).
# Experiments:
# [1] = Pharmacokinetics assay in mice; type: in vivo; settings: female, mouse, po, C57 mice, intragastrical administration, 2 mg/kg, plasma; for Vd/F: read-out: Apparent distribution volume Vz/F; for AUC: read-out: Area under curve AUC; for CL/F: read-out: Clearance CLz/F; for half-life: read-out: Half-life T1/2 (converted); for Cmax: read-out: Plasma concentration Cmax; for MRT: read-out: Residence time MRT
# Description: Mice were used as test animals. […] The pharmacokinetic behavior of the compounds of the present disclosure was studied in mice, and the pharmacokinetic characteristics were evaluated.
# 2.2 Test Animals Thirty-six C57 mice (female, equally divided into 4 groups) were purchased from Shanghai Jiesijie Laboratory Animal Co., LTD.
# A certain amount of the test compound was weighed and dissolved by the addition of 5% of DMSO and 5% of tween 80. Then 90% of normal saline were added to prepare a 0.1 mg/mL colorless, clear and transparent solution.
# After an overnight fast, C57 mice were intragastrically administered the test compound at a dosage of 2 mg/kg and a volume of 0.2 ml/10 g.
# The mice were intragastrically administered the test compounds. 0.1 ml of blood was taken before the administration and at 0.25, 0.5, 1.0, 2.0, 4.0, 6.0, 8.0, 11.0 and 24.0 hours after the administration. The samples were stored in heparinized tubes, and centrifuged for 10 minutes at 3500 rpm to separate the blood plasma. The plasma samples were stored at −20° C.
# The content of the test compound in the plasma of mice after intragastrical administration of the test compound at different concentrations was determined: 25 μL of […] plasma at each time point after the administration was taken, followed by the addition of 50 μL of the internal standard camptothecin solution (National Institutes for Food and Drug Control of China) and 200 μL of acetonitrile. The resulting solution was vortex-mixed for 5 minutes, and centrifuged for 10 minutes (4000 rpm). 4 μL of the supernatant was taken from the plasma samples for LC/MS/MS analysis.
# [2] = target: T1, ERK1 (Homo sapiens, UniProt P27361); assay: ERK1 enzyme activity test (ADP-Glo Kinase Assay); type: biochemical; settings: read-out: IC50 value of the inhibition on ERK1 enzyme activity
# T1 construct: purchased R&D 1879-KS-010
# T1 sequence (P27361 whole entry): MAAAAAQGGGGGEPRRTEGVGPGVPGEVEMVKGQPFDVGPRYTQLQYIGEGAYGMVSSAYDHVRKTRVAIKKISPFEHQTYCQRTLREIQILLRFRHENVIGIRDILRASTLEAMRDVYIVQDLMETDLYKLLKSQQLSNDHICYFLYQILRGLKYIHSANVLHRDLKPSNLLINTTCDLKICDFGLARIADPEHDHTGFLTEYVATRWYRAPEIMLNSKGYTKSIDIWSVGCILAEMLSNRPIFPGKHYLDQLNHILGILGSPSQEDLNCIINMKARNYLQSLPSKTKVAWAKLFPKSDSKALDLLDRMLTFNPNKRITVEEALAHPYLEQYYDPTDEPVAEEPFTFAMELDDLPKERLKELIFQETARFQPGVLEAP
# Description: (§1) The purpose of this experiment is to detect the inhibitory ability of the compounds on the ERK1 enzyme activity, and evaluate the in vitro activity of the compounds based on the IC50. The ADP-Glo™ Kinase Assay Kit is used in this experiment. Under the action of the enzyme, the substrate is phosphorylated and ADP is produced at the same time. The ADP-Glo reagent is added to remove the unreacted ATP in the reaction system, and the ADP produced by the reaction is detected with the kinase detection reagent. In the presence of the compound, the inhibition rate of the compound is calculated by measuring the signal value.
# (§2) ATP was diluted to 300 μM with the buffer. The compound was dissolved in DMSO to prepare a stock solution with an initial concentration of 20 mM, and then Bravo (SGC120TH34702, Agilent Technologies) was used to dilute the stock solution to desired concentrations. Finally, a 30 μL of a mixed solution of enzyme and substrate, and 1 μL, of different concentrations of the compound (the initial concentration is 50 μM, 4-fold dilution) were added to each well of the 384-well plate, and the plate was incubated at 30° C. for 10 minutes, and finally 1 μL of 300 μM ATP solution was added to each well, and the plate was incubated at 30° C. for 2 hours. Then 5 μL of ADP-Glo was added, and the plate was incubated at 30° C. for 40 minutes. Then 10 μL of Kinase detection buffer was added, and the plate was incubated at 30° C. for 40 minutes. The 384-well plate was taken out and placed in a microplate reader (BMG labtech, PHERAstar FS), and the chemiluminescence was measured by the microplate reader.
# (§3) Microsoft Excel, Graphpad Prism 5 was used to process and analyze the data.
# [3] = tested on: Colo205 cells; assay: In vitro proliferation inhibition test on Colo205 tumor cells (CellTiter-Glo); type: cell-based; settings: Homo sapiens, COLO 205, 72 h; 3 days of culture, CTG; read-out: IC50 value of the inhibition on in vitro Colo205 tumor cell proliferation
# Description: The purpose of this experiment is to test the inhibitory activity of the compounds on the proliferation of Colo205 cells (CCL-222, ATCC) in vitro. The cells were treated in vitro with different concentrations of the compounds. After 3 days of culture, the cell proliferation was tested with CTG (CellTiter-Glo® Luminescent Cell Viability Assay, Promega, Catalog No. G7573) reagent, and the in vitro activity of the compounds was evaluated according to the IC50 value.
# In the following, taking the in vitro proliferation inhibition test method of Colo205 cells as an example, the method in the present disclosure for testing the in vitro proliferation inhibitory activity of the compounds of the present disclosure is described. This method is also applicable to, but not limited to, the in vitro proliferation inhibitory activity test on other tumor cells.
# Colo205 cells were digested, centrifuged and then resuspended. The single cell suspension was mixed well, and the density of viable cells was adjusted to 5.0×10^4 cells/ml with cell culture medium (RPMI1640+2% FBS), and 95 μl/well was added to a 96-well cell culture plate. Only 100 μl medium was added to the peripheral wells of the 96-well plate. The culture plate was incubated in an incubator for 24 hours (37° C., 5% CO2).
# The compound was dissolved in DMSO and prepared into a stock solution with an initial concentration of 20 mM. The initial concentration of the small molecule compound was 2 mM, and then 4-fold diluted into 9 points, and the 10th point is DMSO. Another 96-well plate was taken and 90 μl of cell culture medium (RPMI1640+2% FBS) was added to each well, then 10 μl of different concentrations of the test sample was added to each well. The mixture was mixed well, and then 5 μL of different concentrations of the test sample was added to the cell culture plate with duplicate well for each sample. The culture plate was incubated in an incubator for 3 days (37° C., 5% CO2). The 96-well cell culture plate was taken out, 50 μL CTG solution was added to each well, and the plate was incubated for 10 minutes at room temperature. In a microplate reader (BMG labtech, PHERAstar FS), chemiluminescence was measured with the microplate reader.
# as §3
# [4] = target: T2, ERK2 (Homo sapiens, UniProt P28482); assay: ERK2 enzyme activity test (ADP-Glo Kinase Assay); type: biochemical; settings: read-out: IC50 value of the inhibition on ERK2 enzyme activity
# T2 construct: purchased R&D 1879-KS-010
# T2 sequence (P28482 2-360 limits assumed): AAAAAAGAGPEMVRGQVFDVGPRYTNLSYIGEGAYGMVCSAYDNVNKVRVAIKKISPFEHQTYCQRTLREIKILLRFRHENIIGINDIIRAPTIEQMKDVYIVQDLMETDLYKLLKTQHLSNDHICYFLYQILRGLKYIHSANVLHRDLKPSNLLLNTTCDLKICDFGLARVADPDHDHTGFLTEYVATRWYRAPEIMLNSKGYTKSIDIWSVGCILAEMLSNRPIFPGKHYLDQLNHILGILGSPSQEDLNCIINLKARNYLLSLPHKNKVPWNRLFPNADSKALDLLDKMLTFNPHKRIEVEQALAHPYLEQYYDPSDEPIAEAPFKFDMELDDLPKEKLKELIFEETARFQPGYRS
# Description: as §1, with “ERK2” for “ERK1”, “by” for “with”
# as §2, with “to 500” for “to 300”, “a 3” for “a 30”, “1 μL” for “1 μL,”, “of 500” for “of 300”, “of kinase” for “of Kinase”
# as §3
Vd/F [1] [L/kg],AUC [1] [ng·h/mL],CL/F [1] [mL/min/kg],half-life [1] [h],Cmax [1] [ng/mL],MRT [1] [h],IC50 [2] [nM],IC50 [3] [nM],IC50 [4] [nM],SMILES
3.07,3440,9.69,3.66,1020,3.47,5,62,7,"Cn1nccc1Nc1nccc(-c2cc3n(c2)C(=O)N([C@H](CO)c2cccc(Cl)c2)C3)n1 [Example 10, (S)-2-(1-(3-Chlorophenyl)-2-hydroxyethyl)-6-(2-((1-methyl-1H-pyrazol-5-yl)amino)pyrimidin-4-yl)-1,2-dihydro-3H-pyrrolo[1,2-c]imidazol-3-one]"
2.13,3700,9,2.74,816,3.3,5,55,5,"Cc1cccc([C@@H](CO)N2Cc3cc(-c4ccnc(Nc5ccnn5C)n4)cn3C2=O)c1 [Example 15, (S)-2-(2-Hydroxy-1-(m-tolyl)ethyl)-6-(2-((1-methyl-1H-pyrazol-5-yl)amino)pyrimidin-4-yl)-1H-pyrrolo[1,2-c]imidazol-3(2H)-one]"
1.41,7630,4.37,3.73,1540,4.95,30,68,18,"Cn1nccc1Nc1nccc(-c2cc3n(c2)C(=O)N([C@H](CO)c2ccc(Cl)c(F)c2)C3)n1 [Example 20, (S)-2-(1-(3-Fluoro-4-chlorophenyl)-2-hydroxyethyl)-6-(2-((1-methyl-1H-pyrazol-5-yl)amino)pyrimidin-4-yl)-1H-pyrrolo[1,2-c]imidazol-3(2H)-one]"
